The text below walks through data of patent US7390660B2, “Methods for growing mammalian cells in vitro” (Hoffman-La Roche Inc., priority 2002, dated 2008).

The structures appear in SMILES notation. Values joined by “and” are separate entries in the source; they are usually repeats but may differ in a detail not shown here. Identical values can stand only once.

Assay [1] relates to myeloma cell line (Sp2/0). Description: Fermentation in fed batch mode, 10 L bioreactor, with addition of citrate. Format: cell-based. The note with it: 2.4 mmol/L citrate, 10 L scale, single runs and mean. As to the method:
The cells of a myeloma cell line were thawed (Sp2/0) and expanded up to 2 L in spinner flasks for the inoculation of a 10 L bioreactor. The production bioreactor ran in a fed batch mode. The bioreactor was a stirred tank reactor with a working volume of from about 9 to about 13 L. Aeration was performed by sparging. The following process parameters were controlled: pH, temperature, pO2, pressure and agitation rate. Feeding of the culture was started 2 to 4 days after inoculation. Components including glucose, amino acids, vitamins, and trace elements were fed as separate sterile solutions to the bioreactor. Fermentation was terminated after maximum of 10 days.

Assay [2] deals with myeloma cell line (Sp2/0). Description: Fermentation in dialysis mode, 1000 L production bioreactor, with addition of citrate. The assay is classed as cell-based. The source says: The cells of a myeloma cell line (Sp2/0) were thawed and expanded up to 2 L in spinner flasks over a period of approximately 14 days for the inoculation of a 10 L bioreactor. After 2 to 4 days the cells were split or transferred to a 100 L bioreactor and further cultivated for 2 to 4 days. The 100 L bioreactor served as inoculum for the 1000 L production bioreactor. For each inoculum step a starting cell density of about 0.2 to about 0.4×10^6 viable cells per mL was used.
The production bioreactor ran in a dialysis mode. The bioreactor was a stirred tank reactor with a working volume of about 900 to about 1300 L. Aeration was performed by sparging. The following process parameters were controlled: pH, temperature, pO^2, pressure and agitation rate. The bioreactor was equipped for dialysis mode with hollow fibre cartridges. The cartridges were connected to an external loop with a dialysis medium reservoir. The dialysis of the culture was started 2 to 4 days after inoculation. During fermentation the reservoir was repeatedly filled up with fresh dialysis medium. Some medium components were fed as separate sterile solutions to the bioreactor. These comprise glucose, amino acids, vitamins, and trace elements.
Fermentation was terminated after a maximum of 16 days.
The citrate was added to the fermentation medium and to the dialysis medium.

For `O=C(O)CC(O)(CC(=O)O)C(=O)O` [Citrate], the “Specific consumption rate of glucose” value in assay [1] is 443 μg/10^6 cells x day and 715 μg/10^6 cells x day and 451 μg/10^6 cells x day; in assay [1] (mean), 536 μg/10^6 cells x day. In addition, the “Specific production rate of lactate” value in assay [1] was 230 μg/10^6 cells x day and 392 μg/10^6 cells x day and 304 μg/10^6 cells x day. Moreover, the “Amount of alkali required to adjust a constant pH value reduced to, % of the control” value in assay [2] is recorded as “about 34%”. For the same compound, in assay [2] (1000 L scale, versus runs without citrate, printed 'reduced ... about 44%'), the “Reduction of the specific consumption rate for glucose” value is given as “about 44%”.
